# Assay results from the supplement of paper PMC6965134.
# Test: TIMS collisional cross section (CCS, N2) of the lipid ion; higher = larger ion cross section
# Conditions: ionization mode: negative, one isomer drawn
# Procedure: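 Lipid extracts of human plasma (NIST SRM 1950), mouse liver or HeLa cells were separated by nanoflow C18 LC (30 min gradient) and analysed by TIMS-PASEF on a timsTOF Pro. Ion mobility was calibrated with the Agilent tuning mix (negative mode ions) and converted to collisional cross sections (Mason–Schamp, N2).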
# [1] = sample type: Human plasma, ion (formula + adduct): [C44H80NO7P+AcO] 1-
# 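Further: lipids from MTBE extraction, five replicate injections per sample, 100 ms TIMS ramp spanning 0.6–1.95 Vs/cm², lipid identity assigned from PASEF MS/MS spectra.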
compound,measurement,setting,value
CC/C=C\C/C=C\C/C=C\C/C=C\C/C=C\CCCC(=O)O[C@H](COC(=O)CCCCCCC/C=C\C/C=C\CCCCC)COP(=O)([O-])OCC[N+](C)(C)C [PC 18:2_20:5],TIMS collisional cross section,"sample type: Human plasma, ion (formula + adduct): [C46H78NO8P+HCOO] 1-",294.9 Å²
CCCCC/C=C\C/C=C\C/C=C\C/C=C\CCCCCC(=O)O[C@H](COC(=O)CCCCCCC/C=C\C/C=C\CCCCC)COP(=O)([O-])OCC[N+](C)(C)C [PC 18:2_22:4@],TIMS collisional cross section,"sample type: Human plasma, ion (formula + adduct): [C48H84NO8P-CH3] 1-",303.8 Å²
CCCCC/C=C\C/C=C\C/C=C\C/C=C\C/C=C\CCC(=O)O[C@H](COC(=O)CCCCCCC/C=C\C/C=C\CCCCC)COP(=O)([O-])OCC[N+](C)(C)C [PC 18:2_22:5],TIMS collisional cross section,"sample type: Mouse Liver, ion (formula + adduct): [C48H82NO8P+HCOO] 1-",299.9 Å²
CC/C=C\C/C=C\C/C=C\C/C=C\C/C=C\C/C=C\CCC(=O)O[C@H](COC(=O)CCCCCCC/C=C\C/C=C\CCCCC)COP(=O)([O-])OCC[N+](C)(C)C [PC 18:2_22:6],TIMS collisional cross section,"sample type: Human plasma, ion (formula + adduct): [C48H80NO8P+HCOO] 1-",298.8 Å²
same,TIMS collisional cross section,"sample type: Mouse Liver, ion (formula + adduct): [C48H80NO8P+HCOO] 1-",298.8 Å²
CCCCC/C=C\C/C=C\C/C=C\C/C=C\CCCC(=O)O[C@H](COC(=O)CCCC/C=C\C/C=C\C/C=C\CCCCC)COP(=O)([O-])OCC[N+](C)(C)C [PC 18:3@_20:4],TIMS collisional cross section,"sample type: Mouse Liver, ion (formula + adduct): [C46H78NO8P+HCOO] 1-",296 Å²
same,TIMS collisional cross section,"sample type: Mouse Liver, ion (formula + adduct): [C46H78NO8P-CH3] 1-",277.2 Å²
CCCC/C=C/C=C/C=C/CCCCCCCC(=O)OC[C@H](COP(=O)([O-])OCC[N+](C)(C)C)OC(=O)CCCCCCC/C=C/C=C/C=C/CCCC [PC 18:3_18:3],TIMS collisional cross section,"sample type: Mouse Liver, ion (formula + adduct): [C44H76NO8P+HCOO] 1-",289.8 Å²
CCCCC/C=C\C/C=C\C/C=C\CCCCCCC(=O)O[C@H](COC(=O)CCCC/C=C\C/C=C\C/C=C\CCCCC)COP(=O)([O-])OCC[N+](C)(C)C [PC 18:3_20:3],TIMS collisional cross section,"sample type: Human plasma, ion (formula + adduct): [C46H80NO8P+AcO] 1-",300.6 Å²
CC/C=C\C/C=C\C/C=C\C/C=C\C/C=C\C/C=C\CCC(=O)O[C@H](COC(=O)CCCC/C=C\C/C=C\C/C=C\C/C=C\CC)COP(=O)([O-])OCC[N+](C)(C)C [PC 18:4@_22:6],TIMS collisional cross section,"sample type: Mouse Liver, ion (formula + adduct): [C48H76NO8P-CH3] 1-",280 Å²
CCCCCCCCCCCCCCCCCCC(=O)OC[C@H](COP(=O)([O-])OCC[N+](C)(C)C)OC(C)=O [PC 19:0@_2:0],TIMS collisional cross section,"sample type: Human plasma, ion (formula + adduct): [C29H58NO8P-H] 1-",244.4 Å²
CC/C=C\C/C=C\C/C=C\C/C=C\C/C=C\C/C=C\CCC(=O)O[C@H](COC(=O)CCCCCCCCCCCCCCCCCCC)COP(=O)([O-])OCC[N+](C)(C)C [PC 20:0@_22:6],TIMS collisional cross section,"sample type: Mouse Liver, ion (formula + adduct): [C50H88NO8P+HCOO] 1-",308.5 Å²
CCCCC/C=C\C/C=C\C/C=C\C/C=C\CCCC(=O)O[C@H](COC(=O)CCCCCCCCCCCCCCCCCCC)COP(=O)([O-])OCC[N+](C)(C)C [PC 20:0_20:4],TIMS collisional cross section,"sample type: Mouse Liver, ion (formula + adduct): [C48H88NO8P+HCOO] 1-",304.5 Å²
CC/C=C\C/C=C\C/C=C\C/C=C\C/C=C\C/C=C\CCC(=O)O[C@H](COC(=O)CCCCCCCCC/C=C\CCCCCCCC)COP(=O)([O-])OCC[N+](C)(C)C [PC 20:1_22:6@],TIMS collisional cross section,"sample type: Mouse Liver, ion (formula + adduct): [C50H86NO8P+HCOO] 1-",306.7 Å²
CC/C=C\C/C=C\C/C=C\C/C=C\C/C=C\C/C=C\CCC(=O)O[C@H](COC(=O)CCCCCCCCC/C=C\C/C=C\CCCCC)COP(=O)([O-])OCC[N+](C)(C)C [PC 20:2@_22:6],TIMS collisional cross section,"sample type: Mouse Liver, ion (formula + adduct): [C50H84NO8P+HCOO] 1-",303.9 Å²
CC/C=C\C/C=C\C/C=C\C/C=C\C/C=C\C/C=C\CCC(=O)O[C@H](COC(=O)CCC/C=C\C/C=C\C/C=C\C/C=C\C/C=C\CC)COP(=O)([O-])OCC[N+](C)(C)C [PC 20:5_22:6],TIMS collisional cross section,"sample type: Mouse Liver, ion (formula + adduct): [C50H78NO8P+HCOO] 1-",300.4 Å²
CC/C=C\C/C=C\C/C=C\C/C=C\C/C=C\C/C=C\CCC(=O)OC[C@H](COP(=O)([O-])OCC[N+](C)(C)C)OC(=O)CC/C=C\C/C=C\C/C=C\C/C=C\C/C=C\C/C=C\CC [PC 22:6_22:6],TIMS collisional cross section,"sample type: Mouse Liver, ion (formula + adduct): [C52H80NO8P+HCOO] 1-",304.9 Å²
CCCCCCCCCCCCCCCCCC(=O)O[C@H](COCCCCCCCCCCCCCC)COP(=O)([O-])OCC[N+](C)(C)C [PC O- 14:0@_18:0],TIMS collisional cross section,"sample type: Mouse Liver, ion (formula + adduct): [C40H82NO7P+HCOO] 1-",287.2 Å²
CCCCCCCC/C=C\CCCCCCCC(=O)O[C@H](COCCCCCCCCCCCCCC)COP(=O)([O-])OCC[N+](C)(C)C [PC O- 14:0@_18:1],TIMS collisional cross section,"sample type: Human plasma, ion (formula + adduct): [C40H80NO7P+HCOO] 1-",286.1 Å²
CCCCC/C=C\C/C=C\CCCCCCCC(=O)O[C@H](COCCCCCCCCCCCCCC)COP(=O)([O-])OCC[N+](C)(C)C [PC O- 14:0@_18:2],TIMS collisional cross section,"sample type: Human plasma, ion (formula + adduct): [C40H78NO7P-CH3] 1-",265.6 Å²
CCCCC/C=C\C/C=C\C/C=C\C/C=C\CCCC(=O)O[C@H](COCCCCCCCCCCCCCC)COP(=O)([O-])OCC[N+](C)(C)C [PC O- 14:0@_20:4],TIMS collisional cross section,"sample type: Human plasma, ion (formula + adduct): [C42H78NO7P-CH3] 1-",270.6 Å²
CCCCC/C=C\C/C=C\C/C=C\C/C=C\CCCC(=O)O[C@H](COCCCCCCCCCCCCCCC)COP(=O)([O-])OCC[N+](C)(C)C [PC O- 15:0@_20:4],TIMS collisional cross section,"sample type: Human plasma, ion (formula + adduct): [C43H80NO7P-H] 1-",276.3 Å²
CCCCCCCCCCCCCCCCOC[C@H](COP(=O)([O-])OCC[N+](C)(C)C)OC(=O)CCCCCCCCCCCCC [PC O- 16:0@_14:0],TIMS collisional cross section,"sample type: Human plasma, ion (formula + adduct): [C38H78NO7P+HCOO] 1-",282.2 Å²
CCCCC/C=C\C/C=C\CCCCCCCC(=O)O[C@H](COCCCCCCCCCCCCCCCC)COP(=O)([O-])OCC[N+](C)(C)C [PC O- 16:0@_18:2],TIMS collisional cross section,"sample type: Human plasma, ion (formula + adduct): [C42H82NO7P+HCOO] 1-",288.8 Å²
same,TIMS collisional cross section,"sample type: Human plasma, ion (formula + adduct): [C42H82NO7P-CH3] 1-",271.8 Å²
same,TIMS collisional cross section,"sample type: Mouse Liver, ion (formula + adduct): [C42H82NO7P+HCOO] 1-",290 Å²
CCCCCCCCCC/C=C\CCCCCCCC(=O)O[C@H](COCCCCCCCCCCCCCCCC)COP(=O)([O-])OCC[N+](C)(C)C [PC O- 16:0@_20:1],TIMS collisional cross section,"sample type: Mouse Liver, ion (formula + adduct): [C44H88NO7P-CH3] 1-",279.7 Å²
CCCCC/C=C\C/C=C\C/C=C\C/C=C\CCCC(=O)O[C@H](COCCCCCCCCCCCCCCCC)COP(=O)([O-])OCC[N+](C)(C)C [PC O- 16:0@_20:4],TIMS collisional cross section,"sample type: Human plasma, ion (formula + adduct): [C44H82NO7P+AcO] 1-",299.9 Å²
same,TIMS collisional cross section,"sample type: Human plasma, ion (formula + adduct): [C44H82NO7P+HCOO] 1-",293.3 Å²
same,TIMS collisional cross section,"sample type: Mouse Liver, ion (formula + adduct): [C44H82NO7P+HCOO] 1-",292.7 Å²
CC/C=C\C/C=C\C/C=C\C/C=C\C/C=C\CCCC(=O)O[C@H](COCCCCCCCCCCCCCCCC)COP(=O)([O-])OCC[N+](C)(C)C [PC O- 16:0@_20:5],TIMS collisional cross section,[1],298.5 Å²
CC/C=C\C/C=C\C/C=C\C/C=C\C/C=C\CCCCCC(=O)OC(COCCCCCCCCCCCCCCCC)COP(=O)([O-])OCC[N+](C)(C)C (configuration not stated) [PC O- 16:0@_22:5],TIMS collisional cross section,"sample type: Human plasma, ion (formula + adduct): [C46H84NO7P-CH3] 1-",281.3 Å²
same,TIMS collisional cross section,"sample type: Mouse Liver, ion (formula + adduct): [C46H84NO7P-CH3] 1-",280.2 Å²
CC/C=C\C/C=C\C/C=C\C/C=C\C/C=C\C/C=C\CCC(=O)O[C@H](COCCCCCCCCCCCCCCCC)COP(=O)([O-])OCC[N+](C)(C)C [PC O- 16:0@_22:6],TIMS collisional cross section,"sample type: Human plasma, ion (formula + adduct): [C46H82NO7P+HCOO] 1-",298.4 Å²
same,TIMS collisional cross section,"sample type: Mouse Liver, ion (formula + adduct): [C46H82NO7P+HCOO] 1-",296.7 Å²
CCCCCCCCCCCCCCCCOC[C@H](COP(=O)([O-])OCC[N+](C)(C)C)OC(=O)CCCCCCCCCCCCCCC [PC O- 16:0_16:0],TIMS collisional cross section,"sample type: Human plasma, ion (formula + adduct): [C40H82NO7P+HCOO] 1-",287.8 Å²
CCCCC/C=C\C/C=C\CCCCCCCC(=O)O[C@H](COCCCCCCCC/C=C\CCCCCC)COP(=O)([O-])OCC[N+](C)(C)C [PC O- 16:1@_18:2],TIMS collisional cross section,"sample type: Human plasma, ion (formula + adduct): [C42H80NO7P-CH3] 1-",272.4 Å²
same,TIMS collisional cross section,"sample type: Mouse Liver, ion (formula + adduct): [C42H80NO7P-CH3] 1-",272.4 Å²
CC/C=C\C/C=C\C/C=C\C/C=C\CCCCCCC(=O)O[C@H](COCCCCCCCC/C=C\CCCCCC)COP(=O)([O-])OCC[N+](C)(C)C [PC O- 16:1@_20:4],TIMS collisional cross section,[1],296.2 Å²
same,TIMS collisional cross section,"sample type: Human plasma, ion (formula + adduct): [C44H80NO7P-H] 1-",278.5 Å²
same,TIMS collisional cross section,"sample type: Mouse Liver, ion (formula + adduct): [C44H80NO7P+HCOO] 1-",292.2 Å²
same,TIMS collisional cross section,"sample type: Mouse Liver, ion (formula + adduct): [C44H80NO7P-CH3] 1-",275.7 Å²
